The source of these data is PMC8401257, “Serjanic Acid Glycosides from Chenopodium hybridum L. with Good Cytotoxicity and Selectivity Profile against Several Panels of Human Cancer Cell Lines” (Molecules, 2021).

For one series, the system named is HaCaT. Put plainly: LDH cytotoxicity assay, skin keratinocytes HaCaT. The class given is cell-based. The conditions noted are these: Homo sapiens. The text has this: (§1) Human cancer and the corresponding normal cell lines, used in the study, were grouped as follows: skin panel (melanoma HTB140, derived from metastatic site: lymph node, ATCC Hs 294T; malignant melanoma A375, ATCC CRL-1619; stage I primary melanoma WM793, RRID:CVCL 8787; skin keratinocytes HaCaT), prostate panel (prostate carcinoma Du145, derived from metastatic site: brain, ATCC HTB-81; grade IV prostate carcinoma, PC3, derived from metastatic site: bone, ATCC CRL-1435; prostate epithelial cells PNT2, ECACC 95012613), gastrointestinal panel (colorectal adenocarcinomas Caco2, ATCC HTB-37, and HT29, ATCC HTB-38; hepatocellular carcinoma HepG2, ATCC HB-8065), thyroid panel (follicular thyroid carcinoma FTC133, ECACC 94060901; undifferentiated thyroid carcinoma 8505C, ECACC 94090184; Nthy-ori 3–1, human thyroid follicular epithelial cells, ECACC 90011609), lung carcinoma A549 cells (ATCC CRM-CCL-185). Cells were grown at standard conditions (37 °C, 5% CO2, relative humidity) and culture media (DMEM/F12 for PNT2, WM 793, HT29, PC3, FTC133, 8505C, A549; DMEM Low Glucose for DU145; DMEM High Glucose for HTB140, A375, HaCaT; MEM with NEAA for Caco2), supplemented with 10% fetal bovine serum (FBS) and 1% antibiotics solution (10 000 U penicillin and 10 mg streptomycin/mL). All culture media and supplements were from Sigma-Aldrich.
(§2) Cell viability was measured with the lactate dehydrogenase (LDH) assay (Clontech, Mountain View, CA, USA), as described previously. Before the experiment, cells were seeded onto 96-well plates for 24 h (1.5 × 10^4 cells/well). The culture medium was replaced with a fresh medium containing different concentrations of the tested extracts (10–100 μg/mL, in DMSO) and incubated for 24 and 48 h. The absorbance was measured at 490 nm using a Biotek Synergy microplate reader. Cell viability was expressed as percent of the dead cells and IC50 values were also calculated. Each experiment was done in triplicate.
(§3) Data were analyzed using Statistica v. 13.3 (Stat Soft, TIBCO, Palo Alto, CA, USA). Each variable was expressed as mean (± SD). The statistical significance in cytotoxic assay was determined using Mann–Whitney U test. The value p < 0.05 was considered to indicate significant differences. NMR Spectra were analyzed using ACD/Labs ^1D NMR Processor 12.0 (Academic Edition) and JEOL DELTA v 5.3.1 (Jeol Resonance Inc., JEOL, Tokyo, Japan). In MS analysis MassLynx V 4.1 (Waters, Milford, MA, USA) and Compass DataAnalysis (Bruker, Billerica, MA, USA) software were used. IC50 values in cytotoxic assay were calculated using Origin Pro 2020b (OriginLab Corporation, Northampton, MA, USA).

The next series concerns HT29. Put plainly: LDH cytotoxicity assay, colorectal adenocarcinoma HT29. It counts as cell-based. Conditions: Homo sapiens.
From the text: as §1, §2, §3

In the next series the test system is HepG2. Put plainly: LDH cytotoxicity assay, hepatocellular carcinoma HepG2. The class given is cell-based. The conditions noted are these: Homo sapiens.
From the text: as §1, §2, §3

Another series deals with WM793. In words: LDH cytotoxicity assay, primary melanoma WM793. It counts as cell-based. Conditions: Homo sapiens.
From the text: as §1, §2, §3

For the next series, the system named is DU-145. Put plainly: LDH cytotoxicity assay, prostate carcinoma DU-145. The conditions noted are these: Homo sapiens. The class given is cell-based.
From the text: as §1, §2, §3

The subject of a further series is FTC133. In words: LDH cytotoxicity assay, follicular thyroid carcinoma FTC133. It counts as cell-based. Conditions: Homo sapiens.
From the text: as §1, §2, §3

The next series deals with 8505C. Put plainly: LDH cytotoxicity assay, undifferentiated thyroid carcinoma 8505C. Conditions: Homo sapiens. It counts as cell-based.
From the text: as §1, §2, §3

The test system of a further series is A375. In words: LDH cytotoxicity assay, malignant melanoma A375. It counts as cell-based. Conditions: Homo sapiens.
From the text: as §1, §2, §3

Another series deals with Caco-2. Put plainly: LDH cytotoxicity assay, colorectal adenocarcinoma Caco-2. It counts as cell-based. Conditions: Homo sapiens.
From the text: as §1, §2, §3

The subject of a further series is PC3. In words: LDH cytotoxicity assay, prostate carcinoma PC3. The class given is cell-based. The conditions noted are these: Homo sapiens.
From the text: as §1, §2, §3

A further series deals with HTB-140. In words: LDH cytotoxicity assay, melanoma HTB-140. It counts as cell-based. The conditions noted are these: Homo sapiens.
From the text: as §1, §2, §3

The next series concerns Nthy-ori 3–1. Put plainly: LDH cytotoxicity assay, thyroid follicular epithelial cells Nthy-ori 3–1. The class given is cell-based. The conditions noted are these: Homo sapiens.
From the text: as §1, §2, §3

A further series relates to A549. In words: LDH cytotoxicity assay, lung carcinoma A549. Conditions: Homo sapiens. The class given is cell-based.
From the text: as §1, §2, §3

The test system of a further series is PNT2. In words: LDH cytotoxicity assay, normal prostate epithelial PNT2. It counts as cell-based. The conditions noted are these: Homo sapiens.
From the text: as §1, §2, §3

For a further series, the system named is HeLa cells. More on the design: method as in doi:10.1007/s11101-009-9121-0. The conditions noted are these: cited from earlier work.

For the molecule `COC(=O)[C@@]1(C)CC[C@]2(C(=O)O[C@@H]3O[C@H](CO)[C@@H](O)[C@H](O)[C@H]3O)CC[C@]3(C)C(=CC[C@@H]4[C@@]5(C)CC[C@H](O[C@@H]6OC[C@H](O)[C@H](O)[C@H]6O[C@@H]6O[C@@H](C)[C@H](O)[C@@H](O)[C@H]6O)C(C)(C)[C@@H]5CC[C@]43C)[C@@H]2C1` [Compound 1, 3-O-α-L-Rhamnopyranosyl-(1→2)-α-L-Arabinopyranosyl Serjanic Acid 28-O-β-D-Glucopyranosyl Ester], the IC50 (commonly the point on the concentration scale where inhibition reaches its midpoint) was above 100 µg/mL with HaCaT (24 h); above 100 µg/mL in the series with HaCaT (48 h); 57.9 µg/mL in the series on HT29 (HT-29, HT29, 24 h); 22.8 µg/mL in the series with HT29 (HT-29, HT29, 48 h); above 100 µg/mL in the series with HepG2 (HepG2, 24 h); 76.6 µg/mL in the series on HepG2 (HepG2, 48 h). The concentration for half-maximal inhibition (IC50) in the series with WM793 (WM793, 24 h) is 17.2 µg/mL; in the series on WM793 (WM793, 48 h) it was 9.92 µg/mL; in the series on DU-145 (DU-145, 24 h), 16.6 µg/mL; in the series on DU-145 (DU-145, 48 h) it was 7.25 µg/mL; in the series on FTC133 (FTC-133, FTC133, 24 h), above 100 µg/mL; in the series on FTC133 (FTC-133, FTC133, 48 h), 76.3 µg/mL. Also, the IC50 in the series on 8505C (24 h) was above 100 µg/mL; with 8505C (48 h) it was above 100 µg/mL; in the series on A375 (A-375, A375, 24 h), 32.4 µg/mL; with A375 (A-375, A375, 48 h) it was 20.3 µg/mL; in the series with Caco-2 (Caco-2, 24 h), 28.7 µg/mL; with Caco-2 (Caco-2, 48 h), 15.3 µg/mL. Further, the half-inhibitory concentration (IC50) was 34.3 µg/mL in the series with PC3 (PC-3, PC3, 24 h); 19.5 µg/mL with PC3 (PC-3, PC3, 48 h); 11.7 µg/mL in the series with HTB-140 (HTB-140, 24 h); 7.95 µg/mL in the series with HTB-140 (HTB-140, 48 h); above 100 µg/mL in the series with Nthy-ori 3–1 (Nthy-ori 3–1, 24 h); above 100 µg/mL in the series with Nthy-ori 3–1 (Nthy-ori 3–1, 48 h). Besides, the 50% inhibitory concentration (IC50) with A549 (A549, 24 h) was 61.3 µg/mL; in the series on A549 (A549, 48 h), 34.7 µg/mL; with PNT2 (PNT2, 24 h) it was above 100 µg/mL; in the series on PNT2 (PNT2, 48 h) it was above 100 µg/mL.

In the case of `COC(=O)[C@@]1(C)CC[C@]2(C(=O)O[C@@H]3O[C@H](CO)[C@@H](O)[C@H](O)[C@H]3O)CC[C@]3(C)C(=CC[C@@H]4[C@@]5(C)CC[C@H](O[C@@H]6OC[C@H](O)[C@H](O)[C@H]6O)C(C)(C)[C@@H]5CC[C@]43C)[C@@H]2C1` [Compound 2, 3-O-α-L-Arabinopyranosyl Serjanic Acid 28-O-β-D-Glucopyranosyl Ester], the concentration for half-maximal inhibition (IC50) with HaCaT (24 h) was above 100 µg/mL; in the series on HaCaT (48 h) it was above 100 µg/mL; with HT29 (HT-29, HT29, 24 h), 10.7 µg/mL; in the series with HT29 (HT-29, HT29, 48 h) it was 6.48 µg/mL; in the series on HepG2 (HepG2, 24 h), 54.2 µg/mL; in the series on HepG2 (HepG2, 48 h) it was 39 µg/mL. The half-inhibitory concentration (IC50) is 32.2 µg/mL in the series with WM793 (WM793, 24 h); 16.8 µg/mL in the series on WM793 (WM793, 48 h); 33.1 µg/mL in the series with DU-145 (DU-145, 24 h); 23.5 µg/mL in the series on DU-145 (DU-145, 48 h); above 100 µg/mL with FTC133 (FTC-133, FTC133, 24 h); above 100 µg/mL in the series with FTC133 (FTC-133, FTC133, 48 h). For the same molecule, the half-maximal inhibitory concentration (IC50) in the series with 8505C (24 h) is above 100 µg/mL; in the series on 8505C (48 h) it was above 100 µg/mL; in the series with A375 (A-375, A375, 24 h) it was 39.4 µg/mL; in the series with A375 (A-375, A375, 48 h), 29.3 µg/mL; with Caco-2 (Caco-2, 24 h) it was 20.7 µg/mL; in the series with Caco-2 (Caco-2, 48 h), 12.6 µg/mL. Moreover, the IC50 with PC3 (PC-3, PC3, 24 h) was 23.8 µg/mL; in the series with PC3 (PC-3, PC3, 48 h), 18.3 µg/mL; in the series with HTB-140 (HTB-140, 24 h), 39.2 µg/mL; with HTB-140 (HTB-140, 48 h), 25.1 µg/mL; in the series with Nthy-ori 3–1 (Nthy-ori 3–1, 24 h), above 100 µg/mL; in the series with Nthy-ori 3–1 (Nthy-ori 3–1, 48 h), above 100 µg/mL. Also, the IC50 with A549 (A549, 24 h) was 41.7 µg/mL; in the series on A549 (A549, 48 h), 28.3 µg/mL; with PNT2 (PNT2, 24 h), above 100 µg/mL; in the series on PNT2 (PNT2, 48 h), above 100 µg/mL. Also, in the series with HeLa cells, the “cytotoxicity towards HeLa cells” value was “inactive”.

`COc1cccc2c1C(=O)c1c(O)c3c(c(O)c1C2=O)C[C@@](O)(C(=O)CO)C[C@@H]3O[C@H]1C[C@H](N)[C@H](O)[C@H](C)O1` [Doxorubicin, reference compound]: the IC50 in the series with HaCaT (24 h) was 4.68 µg/mL; in the series on HT29 (HT-29, HT29, 24 h) it was 1.53 µg/mL; in the series with HepG2 (HepG2, 24 h), 1.03 µg/mL; in the series with WM793 (WM793, 24 h) it was above 40 µg/mL; in the series on DU-145 (DU-145, 24 h), 3.18 µg/mL; with FTC133 (FTC-133, FTC133, 24 h), 4.02 µg/mL. The concentration for half-maximal inhibition (IC50) with 8505C (24 h) was above 40 µg/mL; with A375 (A-375, A375, 24 h), 0.59 µg/mL; in the series with Caco-2 (Caco-2, 24 h), 3.44 µg/mL; with PC3 (PC-3, PC3, 24 h), above 50 µg/mL; in the series with HTB-140 (HTB-140, 24 h), 5.71 µg/mL; in the series with A549 (A549, 24 h), 1.73 µg/mL. In addition, in the series with PNT2 (PNT2, 24 h), the half-maximal inhibitory concentration (IC50) amounted to 1.38 µg/mL.
